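Results reflect a 48-hour exposure of cells in 96-well plates to compound at five concentrations. At the GI50, growth is halved.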 The source made the active and inactive calls. Rule as the data show it: active = GI50 up to about 1.1 µM and inactive = higher.
Columns and labels:
Test in all cases: NCI tumour cell line growth inhibition, 48 h
HCT-15 = test system: HCT-15
SK-MEL-28 = test system: SK-MEL-28
CCRF-CEM = test system: CCRF-CEM
KM-20L2 = test system: KM-20L2
TK-10 = test system: TK-10
IGROV-1 = test system: IGROV-1
786-0 = test system: 786-0
UO-31 = test system: UO-31
NCI-H522 = test system: NCI-H522
SNB-78 = test system: SNB-78
OVCAR-5 = test system: OVCAR-5
MOLT-4 = test system: MOLT-4
XF498 = test system: XF498
SF-539 = test system: SF-539
DLD-1 = test system: DLD-1
DMS-114 = test system: DMS-114
M14 = test system: M14
ACHN = test system: ACHN
OVCAR-3 = test system: OVCAR-3
HL-60 = test system: HL-60
SK-OV-3 = test system: SK-OV-3
NCI-H460 = test system: NCI-H460
RPMI-8226 = test system: RPMI-8226
HOP-18 = test system: HOP-18
HOP-92 = test system: HOP-92
DMS-273 = test system: DMS-273
EKVX = test system: EKVX
HCT-116 = test system: HCT-116
K562 = test system: K562
OVCAR-8 = test system: OVCAR-8
HCC 2998 = test system: HCC 2998
COLO 205 = test system: COLO 205
OVCAR-4 = test system: OVCAR-4
RXF 393 = test system: RXF 393
SW-620 = test system: SW-620
SN12C = test system: SN12C
SR = test system: SR
LXFL 529 = test system: LXFL 529
SK-MEL-2 = test system: SK-MEL-2
NCI-H226 = test system: NCI-H226
SK-MEL-5 = test system: SK-MEL-5
A549 = test system: A549
KM12 = test system: KM12
SNB-19 = test system: SNB-19
LOX IMVI = test system: LOX IMVI
U-251 = test system: U-251
UACC-62 = test system: UACC-62
HOP-62 = test system: HOP-62
NCI-H23 = test system: NCI-H23
M19-MEL = test system: M19-MEL
SF-295 = test system: SF-295
SF-268 = test system: SF-268
UACC-257 = test system: UACC-257
Malme-3M = test system: Malme-3M
A498 = test system: A498
CAKI-1 = test system: CAKI-1
HT-29 = test system: HT-29
SNB-75 = test system: SNB-75

Measured: GI50

CCOc1ccc(/N=N/c2ccc3oc(=O)c(/C(C)=N/NC(=O)CC(=O)Nc4cccc(OC)c4)cc3c2)cc1
inactive: SK-MEL-28 20.8 µM | CCRF-CEM 3.16 µM | KM-20L2 > 31.6 µM | TK-10 28.3 µM | IGROV-1 23.6 µM | 786-0 10.5 µM | UO-31 12.3 µM | NCI-H522 21.4 µM | SNB-78 23.6 µM | OVCAR-5 > 46.6 µM | MOLT-4 3.56 µM | XF498 17.5 µM | SF-539 17.2 µM | DLD-1 13.8 µM | DMS-114 14.3 µM | M14 16.4 µM | ACHN 21.3 µM | OVCAR-3 13.4 µM | HL-60 3.64 µM | SK-OV-3 38.8 µM | NCI-H460 20 µM | RPMI-8226 8.53 µM | HOP-18 17.1 µM | HOP-92 19.1 µM | DMS-273 24.8 µM | EKVX 19.4 µM | HCT-116 10.2 µM | K562 7.96 µM | OVCAR-8 18.7 µM | HCC 2998 15.6 µM | COLO 205 28.1 µM | OVCAR-4 16.3 µM | RXF 393 17.3 µM | SW-620 21.4 µM | SN12C 15.6 µM | SR 2.64 µM | LXFL 529 11 µM | SK-MEL-2 20.8 µM | NCI-H226 > 39.7 µM | SK-MEL-5 20.2 µM | A549 28.2 µM | KM12 20.8 µM | SNB-19 12.2 µM | LOX IMVI 17.2 µM | U-251 10.6 µM | UACC-62 13.2 µM | HOP-62 17.9 µM | NCI-H23 17.5 µM | M19-MEL 23.8 µM | SF-295 19 µM | SF-268 13.3 µM | UACC-257 3.8 µM | Malme-3M 16.8 µM
30.3 µM: HCT-15

COc1cc(OC)c(C2CC=Cc3c(OC)cc(OC)c(OC)c32)cc1OC (stereo not given)
inactive: SK-MEL-28 > 100 µM | CCRF-CEM > 100 µM | KM-20L2 > 100 µM | A498 > 100 µM | TK-10 > 100 µM | IGROV-1 > 100 µM | 786-0 > 100 µM | UO-31 > 100 µM | SNB-78 > 100 µM | OVCAR-5 > 100 µM | MOLT-4 > 100 µM | XF498 > 100 µM | SF-539 > 100 µM | DLD-1 > 100 µM | DMS-114 > 100 µM | M14 > 100 µM | ACHN > 100 µM | OVCAR-3 > 100 µM | HL-60 > 100 µM | SK-OV-3 > 100 µM | NCI-H460 > 100 µM | RPMI-8226 > 100 µM | HOP-18 > 100 µM | HOP-92 > 100 µM | DMS-273 > 100 µM | EKVX > 100 µM | HCT-116 > 100 µM | K562 > 100 µM | OVCAR-8 > 100 µM | HCC 2998 > 100 µM | COLO 205 > 100 µM | OVCAR-4 > 100 µM | RXF 393 > 100 µM | SW-620 > 100 µM | SN12C > 100 µM | SR > 100 µM | LXFL 529 > 100 µM | SK-MEL-2 > 100 µM | NCI-H226 > 100 µM | SK-MEL-5 > 100 µM | A549 > 100 µM | KM12 > 100 µM | LOX IMVI > 100 µM | U-251 > 100 µM | CAKI-1 > 100 µM | HT-29 > 100 µM | UACC-62 > 100 µM | HOP-62 > 100 µM | NCI-H23 > 100 µM | M19-MEL > 100 µM | SF-295 > 100 µM | SF-268 > 100 µM | UACC-257 > 100 µM | SNB-75 > 100 µM | Malme-3M > 100 µM
> 100 µM: HCT-15

Source: ChEMBL document CHEMBL1201862, “PubChem BioAssay data set” (2004)
